This is an account of results in ChEMBL document CHEMBL1127267, “p-Guanidinobenzoyl-[Hyp3, Thi5, D-Tic7, Oic8]bradykinin is almost completely devoid of the agonist effect of HOE140 on the endothelium-free femoral artery of sheep” (Bioorg Med Chem Lett, 1994).

Square brackets hold non-standard residues; d marks the D form. Peptide text beside a SMILES is read from it. * marks the point of attachment. Benzoyl(4-guanidino) = N=C(N)Nc1ccc(C(=O)*)cc1; Oic = O=C(O)[C@@H]1C[C@@H]2CCCC[C@@H]2N1; Hyp = O=C(O)[C@@H]1C[C@@H](O)CN1; dTic = O=C(O)[C@H]1Cc2ccccc2CN1; 2Thi = N[C@@H](Cc1cccs1)C(=O)O

This experiment addresses T1, B2 bradykinin receptor (Homo sapiens, UniProt P30411).
T1 sequence (P30411 whole entry): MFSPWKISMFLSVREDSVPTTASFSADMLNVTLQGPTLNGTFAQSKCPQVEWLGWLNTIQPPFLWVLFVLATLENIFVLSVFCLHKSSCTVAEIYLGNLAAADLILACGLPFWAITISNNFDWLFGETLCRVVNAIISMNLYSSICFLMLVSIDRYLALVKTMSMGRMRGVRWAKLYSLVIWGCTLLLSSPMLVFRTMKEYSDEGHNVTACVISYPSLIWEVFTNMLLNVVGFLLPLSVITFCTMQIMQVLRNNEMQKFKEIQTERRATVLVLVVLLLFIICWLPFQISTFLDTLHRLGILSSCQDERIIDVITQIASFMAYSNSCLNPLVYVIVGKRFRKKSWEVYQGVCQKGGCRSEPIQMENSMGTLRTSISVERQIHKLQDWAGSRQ
Description: Antagonist effect against bradykinin B2 receptor was determined in rabbit jugular vein. Type of experiment: functional, tissue-based, Oryctolagus cuniculus. Conditions: target entry is the homologue from another species; read-out: pA2 (converted).

Take `N=C(N)NCCC[C@H](NC(=O)[C@@H]1C[C@@H]2CCCC[C@@H]2N1C(=O)[C@H]1Cc2ccccc2CN1C(=O)[C@H](CO)NC(=O)[C@H](Cc1cccs1)NC(=O)CNC(=O)[C@@H]1C[C@@H](O)CN1C(=O)[C@@H]1CCCN1C(=O)[C@H](CCCNC(=N)N)NC(=O)c1ccc(NC(=N)N)cc1)C(=O)O` ({Benzoyl(4-guanidino)}-RP[Hyp]G[2Thi]S[dTic][Oic]R-OH): the Kb is 0.263 nM.
